# Data taken from US20220023289A1, “Application Of Pyrroloquinoline Quinone In Preparation Of Medicament Used For Preventing And Treating Acute Altitude Sickness And Acute Altitude Hypoxia Injury” (priority 2018, published 2022).
# Tests used:
# [1] = Mice weight before hypoxia tolerance test of simulated 10000 m altitude acute decompression; conditions: single dose test
# [2] = Rat body weight before the acute decompression hypoxia experiment (intragastric 7 days)
# Method: (§1) Select healthy Wistar rats weight 160-200 g, half female and half male. After feeding for 3 days, these Wistar rats are randomly divided into ten groups according to their body weight, each group has 16±2 rats. The groups are divided as follows: five groups of the hypoxic exposure drug test group, respectively, are given 0.91 mg/kg, 1.83 mg/kg, 3.66 mg/kg, 7.31 mg/kg, and 14.63 mg/kg drugs. […] After continuous intragastric administration for 7 days, the animals in the hypoxic exposure group are simultaneously put into the decompression and hypoxia compound experimental chamber, the hatch is closed, and the pressure is reduced at a speed of 10 m/s. After being raised to an altitude of 6000 m and maintained for 8 hours, the speed in 10 m/s drops is reduced to normal altitude, open the hatch, and then take out the animal, collect blood samples (after standing for 1 hour, the supernatant is centrifuged and stored at −20° C.), and liver tissue samples. Detection indicator includes body weight, serum blood glucose, ATP, lactic acid, endothelin, nitric oxide, SOD, CO, MDA related to oxidative stress, and total protein, albumin, triglycerides, total cholesterol, high-density lipoprotein cholesterol, low-density lipoprotein cholesterol, glutamic pyruvic transaminase, total bilirubin, gluamic oxalacetic transaminase, serum urea nitrogen, creatinine, uric acid, lactate dehydrogenase, creatine kinase, α-hydroxybutyrate dehydrogenase; liver ATP, hepatic glycogen. Except that the formal oxygen control animal group is not put into the decompression and hypoxia compound experimental chamber, other experimental conditions and detection indicators are the same.
# [3] = system: rats exposed to acute altitude hypoxia; assay: Liver function of rats exposed to acute altitude hypoxia; format: in vivo, Wistar rat
# Method: as §1
# Measure blood glucose, total protein, albumin, triglycerides, total cholesterol, high-density lipoprotein cholesterol, low-density lipoprotein cholesterol, glutamic-pyruvic transaminase, total bilirubin, glutamic oxalacetic transaminase, serum urea nitrogen, creatinine, uric acid, lactate dehydrogenase, creatine kinase, α-hydroxybutyrate dehydrogenase, blood homocysteine by using an automatic blood biochemical analyzer.
# [4] = female rats, hypoxia, 0.91 mg/kg
# [5] = female rats, hypoxia, 1.83 mg/kg
# [6] = female rats, hypoxia, 3.66 mg/kg
# [7] = female rats, hypoxia, 7.31 mg/kg
# [8] = female rats, hypoxia, 14.63 mg/kg
# [9] = female rats, normoxia, 3.66 mg/kg
# [10] = male rats, hypoxia, 14.63 mg/kg
structure (smiles),measurement,setting,value
"O=C(O)c1cc(C(=O)O)c2c(n1)C(=O)C(=O)c1cc(C(=O)O)[nH]c1-2 [PQQ, pyrroloquinoline quinone]",Mice weight Female,[1]; 2.64 mg/kg,17.25 ± 1.23 g
same,Mice weight Male,[1]; 2.64 mg/kg,19.71 ± 0.52 g
same,Mice weight Female,[1]; 5.28 mg/kg,17.32 ± 1.35 g
same,Mice weight Male,[1]; 5.28 mg/kg,19.51 ± 0.68 g
same,Mice weight Female,[1]; 10.56 mg/kg,17.24 ± 0.96 g
same,Mice weight Male,[1]; 10.56 mg/kg,19.16 ± 0.34 g
same,rat body weight Female 1 day,[2]; 0.91 mg/kg,154.4 ± 7.2 g
same,rat body weight Female 7 days,[2]; 0.91 mg/kg,169.6 ± 3.3 g
same,rat body weight Male 1 day,[2]; 0.91 mg/kg,173.4 ± 7.4 g
same,rat body weight Male 7 days,[2]; 0.91 mg/kg,196.4 ± 5.7 g
same,rat body weight Female 1 day,[2]; 1.83 mg/kg,153.6 ± 6.9 g
same,rat body weight Female 7 days,[2]; 1.83 mg/kg,167.4 ± 6.7 g
same,rat body weight Male 1 day,[2]; 1.83 mg/kg,173.6 ± 5.9 g
same,rat body weight Male 7 days,[2]; 1.83 mg/kg,206.8 ± 6.2 g
same,rat body weight Female 1 day,[2]; 3.66 mg/kg,154.1 ± 8.6 g
same,rat body weight Female 7 days,[2]; 3.66 mg/kg,172.1 ± 2.2 g
same,rat body weight Male 1 day,[2]; 3.66 mg/kg,170.8 ± 10.8 g
same,rat body weight Male 7 days,[2]; 3.66 mg/kg,198.3 ± 9.0 g
same,rat body weight Female 1 day,[2]; 7.31 mg/kg,154.3 ± 7.7 g
same,rat body weight Female 7 days,[2]; 7.31 mg/kg,171.1 ± 8.6 g
same,rat body weight Male 1 day,[2]; 7.31 mg/kg,169.9 ± 9.9 g
same,rat body weight Male 7 days,[2]; 7.31 mg/kg,198.6 ± 11.6 g
same,rat body weight Female 1 day,[2]; 14.63 mg/kg,152.7 ± 7.2 g
same,rat body weight Female 7 days,[2]; 14.63 mg/kg,166.0 ± 4.1 g
same,rat body weight Male 1 day,[2]; 14.63 mg/kg,171.6 ± 10 g
same,rat body weight Male 7 days,[2]; 14.63 mg/kg,199.6 ± 12.5 g
same,effect on body weight,"[2]; female rats, 7 days",did not affect
same,effect on weight,"[2]; male rats, 7 days",did not affect
same,effect on serum glutamic-pyruvic transaminase and glutamic oxalacetic transaminase activities,[3]; acute hypoxia exposed female rats,has been not found
same,Glutamic oxalacetic transaminase,[3]; [4],80.71 ± 12.49 U
same,Glutamic-pyruvic transaminase,[3]; [4],29.86 ± 4.30 U
same,Glutamic oxalacetic transaminase,[3]; [5],84.71 ± 18.97 U
same,Glutamic-pyruvic transaminase,[3]; [5],27.86 ± 6.28 U
same,Glutamic oxalacetic transaminase,[3]; [6],82.29 ± 17.75 U
same,Glutamic-pyruvic transaminase,[3]; [6],32.57 ± 5.35 U
same,Glutamic oxalacetic transaminase,[3]; [7],79.29 ± 16.06 U
same,Glutamic-pyruvic transaminase,[3]; [7],32.57 ± 6.37 U
same,Glutamic oxalacetic transaminase,[3]; [8],83.00 ± 20.18 U
same,Glutamic-pyruvic transaminase,[3]; [8],36.57 ± 8.52 U
same,effect on aspartate aminotransferase activity,"[3]; female rats, normoxia",slightly increasing
same,effect on glutamic-pyruvic transaminase,"[3]; female rats, normoxia",no significant effect
same,Glutamic oxalacetic transaminase,[3]; [9],120.29 ± 11.90 U
same,Glutamic-pyruvic transaminase,[3]; [9],37.14 ± 4.45 U
same,"effect on serum glutamic-pyruvic transaminase, glutamic oxalacetic transaminase and total bilirubin",[3]; male rats exposed to acute hypoxia,is not found
same,Glutamic oxalacetic transaminase,"[3]; male rats, hypoxia, 0.91 mg/kg",79.17 ± 15.66 U
same,Glutamic-pyruvic transaminase,"[3]; male rats, hypoxia, 0.91 mg/kg",36.63 ± 8.30 U
same,Total bilirubin,"[3]; male rats, hypoxia, 0.91 mg/kg",0.51 ± 0.12 µmol/L
same,Glutamic oxalacetic transaminase,"[3]; male rats, hypoxia, 1.83 mg/kg",85.80 ± 13.80 U
same,Glutamic-pyruvic transaminase,"[3]; male rats, hypoxia, 1.83 mg/kg",40.63 ± 5.18 U
same,Total bilirubin,"[3]; male rats, hypoxia, 1.83 mg/kg",0.59 ± 0.12 µmol/L
same,Glutamic oxalacetic transaminase,"[3]; male rats, hypoxia, 3.66 mg/kg",99.00 ± 15.52 U
same,Glutamic-pyruvic transaminase,"[3]; male rats, hypoxia, 3.66 mg/kg",42.50 ± 4.93 U
same,Total bilirubin,"[3]; male rats, hypoxia, 3.66 mg/kg",0.60 ± 0.15 µmol/L
same,Glutamic oxalacetic transaminase,"[3]; male rats, hypoxia, 7.31 mg/kg",94.40 ± 12.28 U
same,Glutamic-pyruvic transaminase,"[3]; male rats, hypoxia, 7.31 mg/kg",43.13 ± 8.92 U
same,Total bilirubin,"[3]; male rats, hypoxia, 7.31 mg/kg",0.46 ± 0.15 µmol/L
same,Glutamic oxalacetic transaminase,[3]; [10],109.00 ± 11.68 U
same,Glutamic-pyruvic transaminase,[3]; [10],48.25 ± 8.86 U
same,Total bilirubin,[3]; [10],0.53 ± 0.15 µmol/L
